Measured values from the NIST ThermoML archive (doi:10.1016/j.jct.2019.03.036).
Numbers after ± are expanded uncertainties.

Settings: Liquid, Ebulliometric method (Recirculating still)

CCOC(C)=O [ethyl acetate]
vapor or sublimation pressure (350.29 K): 101.3 ± 3.6 kPa

CCCOC(C)=O [propyl ethanoate]
vapor or sublimation pressure (374.62 K): 101.3 ± 3.6 kPa

C[S+](C)[O-] [dimethyl sulfoxide]
vapor or sublimation pressure (463.27 K): 101.3 ± 3.6 kPa
